# Results as given in patent EP0097071A1, “Benzhydryl sulfinylacetamide derivatives and their therapeutical use” (LABORATOIRE L. LAFON Société anonyme dite:, priority 1982, dated 1983).
# Read-outs that look alike come from different tables or passages of the source.
# How the values were obtained:
# souris [1] = test: Traction test; assay type: in vivo; conditions: 0,5 h after administration, dose not stated
# Experimental: (§1) On a résumé ci-après les résultats des essais pharmacologiques qui ont été entrepris avec les produits selon la présente addition. Dans ces essais, les produits de formule I à étudier ont été administrés par voie intrapéritonéale, en suspension dans une solution aqueuse de gomme arabique, sous un volume de 20 ml/kg chez la souris mâle et sous un volume de 5 ml/kg chez le rat mâle.
# (§2) Les essais sont effectués sur des lots de 10 souris (par dose) 0,5 h après l'administration du CRL 40933.
# SNC = test: Essential activity on the CNS (Tableau I and conclusions of the neuropsychopharmacological study); assay type: in vivo
# Text: Dans le tableau I ci-après, on a consigné un certain nombre de composés selon la formule I de façon nullement limitative, en mentionnant l'activité essentielle sur le SNC.
# Les composés de formule I agissent tous sur le SNC. Les produits des exemples 1-3 et 7-8 sont des agents stimulants, en revanche les produits des exemples 4-6 sont des agents sédatifs.
# souris mâle [2] = test: Toxicity, DL-0; assay type: in vivo; conditions: i.p.
# How it was run: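 Male mice dosed intraperitoneally with compound suspended in aqueous gum arabic at 20 ml/kg. Value is DL-0, the minimal non-lethal dose.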
# rats = test: Interaction with amphetamine (stereotypies); assay type: in vivo; conditions: rat; amphétamine 2 mg/kg i.p.; doses used, not stated
# Experimental: as §1
# L'amphétamine (2 mg/kg)est injectée par voie intrapéritonéale à des lots de 6 rats, 30 min après l'administration de CRL 40933.
# souris [3] = test: Motility reduced by habituation to the enclosure; assay type: in vivo
# How it was run: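 Male mice (6 per dose, 12 controls) habituated 18 h in actimeters got compound i.p. as aqueous gum arabic suspension, 20 ml/kg. Returned to enclosures immediately; motility recorded for 30 min starting 30 min post-dose.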
# homme = test: Clinical trials; assay type: in vivo
# Text: Les études cliniques ont porté sur les troubles de la vigilance, de l'éveil et des états confusionnels, d'une part, et sur les troubles de l'affectivité, du contact et des dépressions, d'autre part.
# souris [4] = test: Interaction with barbital (sleep); assay type: in vivo; conditions: dès la dose de 8 mg/kg i.p., barbital 220 mg/kg i.p.
# How it was run: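 Male mice (groups of 10) dosed intraperitoneally with compound suspended in aqueous gum arabic (20 ml/kg); barbital 220 mg/kg i.p. given half an hour later.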
# souris [5] = test: Interaction with oxotremorine; assay type: in vivo
# Experimental: as §1
# Le CRL 40933 est administré à des lots de 6 souris 0,5 h avant l'injection intrapéritonéale de 0,5 mg/kg d'oxotrémorine.
# souris [6] = test: Spontaneous motility (actimeter); assay type: in vivo
# How it was run: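 Male mice dosed i.p. as a suspension in aqueous gum arabic (20 ml/kg); 30 min later they are placed in an actimeter and motility is recorded for 30 min, 6 mice per dose, 12 controls.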
# souris [7] = test: Asphyxic anoxia (gallamine triethiodide); assay type: in vivo; conditions: 128 mg/kg i.p., 30 min before triiodoéthylate de gallamine 32 mg/kg i.p.
# Experimental: as §1
# Des lots de 10 souris par dose reçoivent le CRL 40933 30 min avant l'administration intrapéritonéale de 32 mg/kg de triiodoéthylate de gallamine.
# souris [8] = test: Motility reduced by hypoxic aggression (acute hypobaric anoxia); assay type: in vivo; conditions: 128 mg/kg i.p.
# How it was run: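 Male mice (10 per dose, 20 controls) got compound i.p. as an aqueous gum arabic suspension (20 ml/kg). Thirty minutes later they underwent acute hypobaric anoxia: 600 mm Hg depression over 90 s, then 45 s release. Motility was then recorded in an actimeter for 10 min.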
# rats mâles = test: Global behaviour and reactivities, rat; assay type: in vivo
# Experimental: as §1
# Pour apprécier le comportement global et les réactivités, des lots de six animaux (souris mâles ou rats mâles) ont été observés avant administration de chaque produit, puis 15 min, 30 min, 1 h, 2 h, 3 h et 24 h après administration de chaque produit. Les résultats sont consignés dans le tableau III ci-après, […]
# souris [9] = test: Electroshock; assay type: in vivo; conditions: 32 mg/kg à 128 mg/kg i.p.
# souris mâle [10] = test: Pentobarbital-induced sleep duration; assay type: in vivo; conditions: dose 8 mg/kg i.p., 0,5 h before pentobarbital
# Text: Les composés selon l'invention se distinguent du benzhydrylsulfinylacétamide (CRL 40476) précité par une différence d'action vis-à-vis du sommeil barbiturique. […]. Cette différence d'action qui est intéressante sur le plan thérapeutique est illustrée par le tableau IV
# [11] = Global behaviour and reactivities, mouse; assay type: in vivo, souris; conditions: mouse, in vivo, ip, souris, 24 h après administration, read-out: mortalité tardive
# souris mâles = test: Global behaviour and reactivities, mouse; assay type: in vivo; conditions: souris
# souris [12] = test: Interaction with apomorphine, mouse; assay type: in vivo
# Experimental: as §1
# Des lots de 6 souris par dose reçoivent le CRL 40933 0,5 h avant l'injection sous-cutanée d'apomorphine administrée à la dose de 1 ou 16 mg/kg.
# souris [13] = test: Intergroup aggressiveness; assay type: in vivo; conditions: dose not stated
# Experimental: as §1
# Après avoir séjourné pendant 3 semaines dans chacune des moitiés d'une cage séparées par une cloison opaque, des groupes de 3 souris reçoivent le CRL 40933. 30 min plus tard, les deux groupes d'une même cage sont réunis par retrait de la cloison et on note le nombre de combats qui surviennent en 10 min.
# souris [14] = test: Interaction with reserpine; assay type: in vivo; conditions: 32 mg/kg et 12'8 mg/kg i.p.
# Experimental: as §1
# Quatre heures après l'injection intrapéritonéale de 2,5 mg/kg de réserpine, des lots de 6 souris reçoivent le CRL 40933.
# souris [15] = test: Four plates test; assay type: in vivo; conditions: 0,5 h after administration, dose not stated
# Experimental: as §1, §2
# rat = test: Interaction with apomorphine, rat; assay type: in vivo; conditions: apomorphine 0,5 mg/kg s.c., dose not stated
# Experimental: as §1
# Le CRL 40933 est administré à des lots de 6 rats 0,5 h avant l'injection sous-cutanée de 0,5 mg/kg d'apomorphine.
# souris [16] = test: Behavioural despair (forced immersion); assay type: in vivo; conditions: souris; 8 mg/kg, 32 mg/kg, mais surtout 128 mg/kg i.p.
# How it was run: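 Male mice were dosed i.p. with compound suspended in aqueous gum arabic at 20 ml/kg, 10 per dose. Thirty minutes later each mouse was put in a confined space holding 6 cm of water, and immobility time was scored from minute 2 to minute 6.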
smiles,measurement,setting,value
"NC(=O)C[S+]([O-])C(c1ccccc1)c1ccc(Cl)cc1 (stereo not shown) [Exemple 7, 4-chlorobenzhydrylsulfinylacétamide]",déficit moteur (traction),souris [1],ne provoque pas de déficit moteur majeur
same,Activité sur le SNC,SNC; in vivo,stimulant
same,conclusion of the neuropsychopharmacological study: main type of CNS effect,SNC; in vivo,effets de type stimulant
same,conclusion: effets de type antidépresseur,SNC; in vivo,effets de type antidépresseur qui sont faibles
same,conclusion: effets anticonvulsivants,SNC; souris mâle,effets anticonvulsivants
same,DL-O,souris mâle [2],supérieure à 256 mg/kg
same,stéréotypies amphétaminiques,rats,ne modifie pas sensiblement
same,reprise de l'activité chez la souris habituée à son enceinte,souris [3]; 2 mg/kg et 8 mg/kg i.p.,à peine perceptible
same,reprise de l'activité chez la souris habituée à son enceinte,souris [3]; 32 mg/kg à 128 mg/kg i.p.,net
same,action contre l'énurésie,homme,agissent efficacement
same,résultats en tant que médicaments de l'éveil,"homme; notamment vieillard, gélules ou comprimés de 100 à 200 mg, 1 à 3 par jour",excellents résultats
same,durée du sommeil induit par le barbital,souris [4],diminue
same,effet hypothermisant de l'oxotrémorine,"souris [5]; 128 mg/kg i.p., 0,5 h before oxotrémorine 0,5 mg/kg i.p.",s'oppose faiblement
same,signes de stimulation cholinergique périphérique dus à l'oxotrémorine,souris [5]; dose not stated,ne modifie pas
same,tremblements induits par l'oxotrémorine,souris [5]; dose not stated,ne sont pas influencés
same,motilité spontanée,souris [6]; 2 mg/kg i.p. (lowest dose used),diminution de motilité
same,motilité spontanée,souris [6]; 32 mg/kg et 128 mg/kg i.p.,augmentation nette
same,délai d'apparition des convulsions et de la mort consécutives à une anoxie asphyxique,souris [7],diminue
same,récupération motrice après séjour bref dans une enceinte à pression réduite,souris [8],amélioration nette
same,Observations (comportement global et réactivités),rats mâles; 16 mg/kg i.p.,mydriase 1 h après administration
same,Observations (comportement global et réactivités),rats mâles; 64 mg/kg i.p.,hypotonie musculaire pendant 3 h - respiration déprimée pendant 3 h - mydriase pendant 2 à 3 h
same,effets convulsivants de l'électrochoc,souris [9],s'oppose
same,Action sur la durée du sommeil induit par le pentobarbital (50 mg/kg i.p.) effet,souris mâle [10],(a)
same,mortality at 24 h,[11]; 512 mg/kg i.p.,33%
same,mortality at 24 h,[11]; 1024 mg/kg i.p.,66%
same,Observations (comportement global et réactivités),souris mâles; 512 mg/kg i.p.,"crampes abdominales, sédation et hypo-réactivité au toucher"
same,Observations (comportement global et réactivités),souris mâles; 1024 mg/kg i.p.,"crampes abdominales, sédation et hypo-réactivité au toucher, respiration dépri-mée"
same,Observations (comportement global et réactivités),souris mâles; 128 mg/kg i.p.,"excitation apparaissant 1,5 h après administration et durant 3 h - réactivité au toucher"
same,Observations (comportement global et réactivités),souris mâles; 256 mg/kg i.p.,"crampes abdominales, respiration déprimée, puis - excitation apparaissant 1,5 h après administration"
same,comportement de verticalisation et stéréotypies (apomorphine),souris [12]; 128 mg/kg i.p.,sans modifier
same,action hypothermisante de l'apomorphine,"souris [12]; 128 mg/kg i.p. 0,5 h before apomorphine 16 mg/kg s.c.",s'oppose
same,agressivité intergroupes (nombre de combats),souris [13],ne modifie pas nettement
same,ptôsis réserpinique,souris [14],sans modifier
same,hypothermie réserpinique,"souris [14]; 4 h after réserpine 2,5 mg/kg i.p.",s'oppose très faiblement
same,nombre de passages punis,souris [15],n'entraine pas d'augmentation nette
same,stéréotypies induites par l'apomorphine,rat,ne modifie pas
same,durée d'immobilité,souris [16],diminue
